From ChEMBL document CHEMBL1201862, “PubChem BioAssay data set” (2004)
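Where inhibition never reached the appropriate level, the endpoint shown equals the highest concentration tested. Otherwise, values were interpolated linearly from a five-concentration, 48-hour dose response in 96-well plates. GI50 marks 50% less growth.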 The source made the active and inactive calls. Cut-off read from the data, not from the text of the source: active = GI50 up to about 1.1 µM and inactive = higher.

Tests used:
Assay in all cases: growth of human tumour cells (NCI), 48 h
Malme-3M = system: Malme-3M
SF-295 = system: SF-295
SNB-75 = system: SNB-75
SR = system: SR
CCRF-CEM = system: CCRF-CEM
K562 = system: K562
HL-60 = system: HL-60
UACC-257 = system: UACC-257
SK-MEL-28 = system: SK-MEL-28
M14 = system: M14
MDA-N = system: MDA-N
NCI-H23 = system: NCI-H23
MCF7 = system: MCF7
SNB-19 = system: SNB-19
HT-29 = system: HT-29
LOX IMVI = system: LOX IMVI
786-0 = system: 786-0
SW-620 = system: SW-620
NCI-H460 = system: NCI-H460
SK-OV-3 = system: SK-OV-3

| SMILES | GI50 (Malme-3M) | GI50 (SF-295) | GI50 (SNB-75) | GI50 (SR) | GI50 (CCRF-CEM) | GI50 (K562) | GI50 (HL-60) | GI50 (UACC-257) | GI50 (SK-MEL-28) | GI50 (M14) | GI50 (MDA-N) | GI50 (NCI-H23) | GI50 (MCF7) | GI50 (SNB-19) | GI50 (HT-29) | GI50 (LOX IMVI) | GI50 (786-0) | GI50 (SW-620) | GI50 (NCI-H460) | GI50 (SK-OV-3) |
| --- | --- | --- | --- | --- | --- | --- | --- | --- | --- | --- | --- | --- | --- | --- | --- | --- | --- | --- | --- | --- |
| Nc1ccc(C(=O)O)cc1 [AMINOBENZOIC ACID] | > 100 µM (inactive) | > 100 µM (inactive) | > 100 µM (inactive) | > 100 µM (inactive) | > 100 µM (inactive) | > 100 µM (inactive) | > 100 µM (inactive) | > 100 µM (inactive) | > 100 µM (inactive) | > 100 µM (inactive) | > 100 µM (inactive) | > 100 µM (inactive) | > 100 µM (inactive) | > 100 µM (inactive) | > 100 µM (inactive) | > 100 µM (inactive) | > 100 µM (inactive) | > 100 µM (inactive) | > 100 µM (inactive) | – |
| COc1cc(/C=[N+](\[O-])c2ccccc2Cl)ccc1OC(=S)S | 38.4 µM (inactive) | 30.3 µM (inactive) | 18 µM (inactive) | 26.1 µM (inactive) | – | 25.9 µM (inactive) | 20.1 µM (inactive) | 26.4 µM (inactive) | 35 µM (inactive) | 30.9 µM (inactive) | 29 µM (inactive) | 28.5 µM (inactive) | 27.6 µM (inactive) | 55.1 µM (inactive) | 42.5 µM (inactive) | 36.9 µM (inactive) | 50.4 µM (inactive) | 37.1 µM (inactive) | 27.2 µM (inactive) | 43.9 µM (inactive) |
| CC(=O)/C=c1\[nH]/c(=C\C=C\c2ccccc2)c(=O)n1/C=C1\C(=O)Oc2ccccc2C1=O | > 100 µM (inactive) | – | 59.4 µM (inactive) | > 100 µM (inactive) | > 100 µM (inactive) | > 100 µM (inactive) | > 100 µM (inactive) | > 100 µM (inactive) | > 100 µM (inactive) | > 100 µM (inactive) | > 100 µM (inactive) | > 100 µM (inactive) | > 100 µM (inactive) | > 100 µM (inactive) | > 100 µM (inactive) | > 100 µM (inactive) | > 100 µM (inactive) | > 100 µM (inactive) | – | > 100 µM (inactive) |
| C[C@]12CCC(=O)C=C1CC[C@@H]1[C@@H]2CC[C@]2(C)C(=O)[C@H](n3ccnc3)C[C@@H]12 | > 100 µM (inactive) | > 100 µM (inactive) | > 100 µM (inactive) | 74.1 µM (inactive) | 58.6 µM (inactive) | 75.3 µM (inactive) | 21.9 µM (inactive) | > 100 µM (inactive) | > 100 µM (inactive) | > 100 µM (inactive) | > 100 µM (inactive) | > 100 µM (inactive) | > 100 µM (inactive) | > 100 µM (inactive) | 27.4 µM (inactive) | > 100 µM (inactive) | > 100 µM (inactive) | > 100 µM (inactive) | > 100 µM (inactive) | – |
| Cc1cn(CCCCOC(=O)NC(CCCNC(=N)N)C(=O)O)c(=O)[nH]c1=O (configuration not stated) | – | > 100 µM (inactive) | > 100 µM (inactive) | > 100 µM (inactive) | > 100 µM (inactive) | > 100 µM (inactive) | > 100 µM (inactive) | > 100 µM (inactive) | > 100 µM (inactive) | > 100 µM (inactive) | > 100 µM (inactive) | > 100 µM (inactive) | > 100 µM (inactive) | > 100 µM (inactive) | > 100 µM (inactive) | > 100 µM (inactive) | > 100 µM (inactive) | > 100 µM (inactive) | > 100 µM (inactive) | > 100 µM (inactive) |
| CN(C)CCn1c(=O)c2ccc(NCCCN(C)CCCNc3ccc4c(=O)n(CCN(C)C)c(=O)n5c6ccc(O)cc6c(=O)c3c45)c3c(=O)c4cc(O)ccc4n(c1=O)c23 | 0.0659 µM (active) | < 0.01 µM (active) | < 0.01 µM (active) | < 0.01 µM (active) | < 0.01 µM (active) | < 0.01 µM (active) | 0.0342 µM (active) | 0.181 µM (active) | 0.0841 µM (active) | 0.147 µM (active) | < 0.0337 µM (active) | < 0.01 µM (active) | < 0.01 µM (active) | < 0.01 µM (active) | < 0.01 µM (active) | < 0.01 µM (active) | < 0.01 µM (active) | < 0.01 µM (active) | < 0.01 µM (active) | – |
| O=C1Nc2ccc(Br)cc2/C1=N/c1ccc(Cl)cc1 | 24.8 µM (inactive) | 3.63 µM (inactive) | – | 6.21 µM (inactive) | 11.6 µM (inactive) | 0.586 µM (active) | 5.48 µM (inactive) | 18.1 µM (inactive) | 23.3 µM (inactive) | 20.7 µM (inactive) | 6.98 µM (inactive) | 30.2 µM (inactive) | 10.2 µM (inactive) | 28 µM (inactive) | 12.1 µM (inactive) | 0.521 µM (active) | 26.3 µM (inactive) | 6.56 µM (inactive) | 14.4 µM (inactive) | 40.8 µM (inactive) |
| Cc1ccc2c(c1C)CC1(Cc3ccc(C)c(C)c3C1=O)C2=O (configuration not stated) | > 100 µM (inactive) | 30.3 µM (inactive) | 67.6 µM (inactive) | > 100 µM (inactive) | > 100 µM (inactive) | > 100 µM (inactive) | 94.6 µM (inactive) | > 100 µM (inactive) | > 100 µM (inactive) | > 100 µM (inactive) | > 100 µM (inactive) | – | 66.8 µM (inactive) | 59.6 µM (inactive) | – | > 100 µM (inactive) | 39.4 µM (inactive) | > 100 µM (inactive) | > 100 µM (inactive) | – |
| O=C1c2cccc3cc([N+](=O)[O-])cc(c23)C(=O)N1O | 28.4 µM (inactive) | 46.1 µM (inactive) | – | 24.5 µM (inactive) | 27 µM (inactive) | 36.8 µM (inactive) | > 100 µM (inactive) | 33.7 µM (inactive) | 45.8 µM (inactive) | 39.2 µM (inactive) | 47 µM (inactive) | 30.8 µM (inactive) | 24.8 µM (inactive) | 43.9 µM (inactive) | 31 µM (inactive) | 25.9 µM (inactive) | 45.2 µM (inactive) | 38.2 µM (inactive) | 27.2 µM (inactive) | 46.9 µM (inactive) |
| CS(=O)(=O)OCCCSCCSCCCOS(C)(=O)=O | – | > 100 µM (inactive) | > 100 µM (inactive) | > 100 µM (inactive) | > 100 µM (inactive) | > 100 µM (inactive) | > 100 µM (inactive) | > 100 µM (inactive) | > 100 µM (inactive) | > 100 µM (inactive) | > 100 µM (inactive) | > 100 µM (inactive) | > 100 µM (inactive) | > 100 µM (inactive) | > 100 µM (inactive) | > 100 µM (inactive) | > 100 µM (inactive) | > 100 µM (inactive) | > 100 µM (inactive) | > 100 µM (inactive) |
| O=C(Nc1ccc2ncccc2c1)c1cc2c(cc1Cl)Sc1nccn1S2(=O)=O | 16.7 µM (inactive) | 15.9 µM (inactive) | 15.3 µM (inactive) | 4.36 µM (inactive) | – | 6.31 µM (inactive) | 9.27 µM (inactive) | 20.1 µM (inactive) | 18.4 µM (inactive) | 15.1 µM (inactive) | 5.56 µM (inactive) | 15.6 µM (inactive) | 6.12 µM (inactive) | 16.4 µM (inactive) | 16.7 µM (inactive) | 12.9 µM (inactive) | 13.6 µM (inactive) | 16 µM (inactive) | 15.7 µM (inactive) | 33.3 µM (inactive) |
| Nc1cc(F)ccc1CC(=O)O | > 100 µM (inactive) | > 100 µM (inactive) | > 100 µM (inactive) | > 100 µM (inactive) | > 100 µM (inactive) | > 100 µM (inactive) | > 100 µM (inactive) | > 100 µM (inactive) | > 100 µM (inactive) | > 100 µM (inactive) | > 100 µM (inactive) | > 100 µM (inactive) | > 100 µM (inactive) | > 100 µM (inactive) | > 100 µM (inactive) | > 100 µM (inactive) | > 100 µM (inactive) | > 100 µM (inactive) | – | > 100 µM (inactive) |
| NC(Cc1c[nH]c2ccc([N+](=O)[O-])cc12)C(=O)O (configuration not stated) | > 100 µM (inactive) | > 100 µM (inactive) | > 100 µM (inactive) | > 100 µM (inactive) | > 100 µM (inactive) | > 100 µM (inactive) | > 100 µM (inactive) | > 100 µM (inactive) | > 100 µM (inactive) | > 100 µM (inactive) | > 100 µM (inactive) | > 100 µM (inactive) | > 100 µM (inactive) | > 100 µM (inactive) | > 100 µM (inactive) | > 100 µM (inactive) | > 100 µM (inactive) | > 100 µM (inactive) | – | > 100 µM (inactive) |
| Oc1[nH]c(Nc2cccc(CC(F)(F)F)c2)nc2ncnc1-2 | > 100 µM (inactive) | > 100 µM (inactive) | 95.5 µM (inactive) | > 100 µM (inactive) | > 100 µM (inactive) | – | > 100 µM (inactive) | > 100 µM (inactive) | > 100 µM (inactive) | > 100 µM (inactive) | > 100 µM (inactive) | > 100 µM (inactive) | > 100 µM (inactive) | > 100 µM (inactive) | > 100 µM (inactive) | > 100 µM (inactive) | > 100 µM (inactive) | > 100 µM (inactive) | > 100 µM (inactive) | > 100 µM (inactive) |
| O=C1C(C(O)(C(F)(F)Cl)C(F)(F)Cl)CCC1C(O)(C(F)(F)Cl)C(F)(F)Cl (configuration not stated) | 5.47 µM (inactive) | 2.58 µM (inactive) | 3.7 µM (inactive) | > 10 µM (inactive) | – | > 10 µM (inactive) | > 10 µM (inactive) | 2.79 µM (inactive) | 3.42 µM (inactive) | 7.78 µM (inactive) | > 10 µM (inactive) | 2.8 µM (inactive) | 3.48 µM (inactive) | 4.3 µM (inactive) | 3.26 µM (inactive) | 3.94 µM (inactive) | > 10 µM (inactive) | 4.15 µM (inactive) | > 10 µM (inactive) | 5.51 µM (inactive) |
